Assay results published in ChEMBL document CHEMBL1124807, “Syntheses and platelet aggregation inhibitory and antithrombotic properties of [2-[(omega-aminoalkoxy)phenyl]ethyl]benzenes” (J Med Chem, 1990).

Columns and labels:
Oryctolagus cuniculus = species: Oryctolagus cuniculus; assay: In vitro inhibition of collagen induced platelet aggregation of rabbit platelet rich plasma; type: functional
Mus musculus [1] = assay: In vivo antithrombotic activity in mice following p.o. administration.; type: functional; settings: po, read-out: PD50
[2] = biological target: T1, Serotonin 2 (5-HT2) receptor (Rattus norvegicus, UniProt P30994+P08909+P14842); assay: Antagonistic activity against 5-hydroxytryptamine 2 receptor on rat frontal cortex membrane.; type: functional, tissue-based
[3] = biological target: T1, Serotonin 2 (5-HT2) receptor; assay: Inhibition of 5-hydroxytryptamine 2 induced vasoconstriction of rat caudal artery.; type: tissue-based
Mus musculus [4] = assay: In vivo antithrombotic activity in mice (po); type: functional; settings: read-out: PD50

SMILES | IC50 (Oryctolagus cuniculus; read-out: IC50) [nM] | IC50 [2] [nM] | Ki [3] [nM] | ED50 (Mus musculus [1]) [mg/kg] | other results
CN(C)CC(COc1ccccc1CCc1cccc(Cl)c1)OC(=O)CCC(=O)O (centres undefined) | 800 | – | – | 27 | –
CN(C)CCCOc1ccccc1CCc1ccc(Cl)cc1.Cl | 540 | – | – | > 50 | –
CC(=O)Oc1ccccc1C(=O)O [ASPIRIN] | – | – | – | – | IC50 (Oryctolagus cuniculus): 23000 nM
COc1cccc(CCc2ccccc2OCCCCN(C)C)c1.Cl | 530 | 62.2 | 13.1 | 19 | –
CN(C)CCCCOc1ccccc1CCc1ccccc1Cl.Cl | 500 | – | – | 50 | –
CN(C)CCCOc1ccccc1CCc1ccc(Cl)c(Cl)c1 | 580 | – | – | 94 | –
NC(=O)C1CCCN(CCCCOc2ccccc2CCc2ccccc2)C1 (centres undefined) | 1400 | – | – | – | –
CN(C)CCCCOc1ccccc1CCc1cccc(F)c1.Cl | 480 | – | – | 27 | –
CN(C)CC(COc1ccccc1CCc1ccccc1)OCCC(=O)O (centres undefined) | 3300 | – | – | 25 | –
COc1cccc(CCc2ccccc2OCC(O)CN(C)C)c1 (centres undefined) | 480 | 12.5 | 1.16 | 29 | –
OCCN1CCN(CCCCOc2ccccc2CCc2ccccc2)CC1 | 2200 | – | – | – | –
CN(C)CCCCOc1ccccc1CCc1ccc(F)cc1.Cl | 760 | – | – | > 50 | –
COc1cccc(CCc2ccccc2OCC(CN(C)C)OC(=O)CCC(=O)O)c1.Cl (centres undefined) [SARPOGRELATE HYROCHLORIDE] | 970 | 51.3 | 17.8 | 24 | –
CN(C)CCCCOc1ccccc1CCc1cccc(Cl)c1.Cl | 530 | – | – | 27 | –
CN(C)CCCCOc1ccccc1CCc1ccccc1 | 700 | 115.4 | 9.78 | – | ED50 (Mus musculus [4]): 26 mg/kg
CN(C)CC(O)COc1ccccc1CCc1ccccc1 (centres undefined) | 1200 | 54.8 | 13.9 | – | –
Clc1ccccc1CN1CCc2sccc2C1 [TICLOPIDINE] | – | – | – | 120 | –
CN(C)CC(COc1ccccc1CCc1cccc(F)c1)OC(=O)CCC(=O)O (centres undefined) | 1200 | 132.5 | 41.3 | 27 | –
NC(=O)C1CCN(CCCCOc2ccccc2CCc2ccccc2)CC1 | 2400 | – | – | – | –
CN(C)CC(COc1ccccc1CCc1ccccc1)OCC(=O)O (centres undefined) | 3600 | – | – | 24 | –
CN(C)CCCOc1ccc(Cl)cc1CCc1ccccc1 | 2500 | 881.4 | 25.7 | – | ED50 (Mus musculus [4]): 21 mg/kg
CN(C)CCCOc1ccccc1CCc1ccc(N(C)C)cc1.Cl | 310 | 53.6 | 23.3 | 130 | –
COc1ccccc1CCc1ccccc1OCCCCN(C)C.Cl | 600 | – | – | 45 | –
COc1cccc(CCc2ccccc2)c1OCCCCN(C)C | 2300 | – | – | – | ED50 (Mus musculus [4]): 40 mg/kg
CN(C)CC(COc1ccccc1CCc1ccccc1)OC(=O)CCC(=O)O (centres undefined) | 2200 | – | – | 27 | –

More lines, main results first:

IC50 (Oryctolagus cuniculus; read-out: IC50) [nM] | IC50 [2] [nM] | Ki [3] [nM] | SMILES | ED50 (Mus musculus [1]) [mg/kg] | other results
2400 | – | – | c1ccc(CCc2ccccc2OCCCCN2CCCCC2)cc1 | – | –
540 | 33.8 | 4.55 | CN(C)CCCOc1ccccc1CCc1ccccc1 | – | –
1500 | – | – | CN(C)CCCCOc1ccccc1CCc1ccccc1C(=O)O | – | –
900 | – | – | CCOc1ccccc1CCc1ccccc1OCCCCN(C)C | – | –
1150 | 377 | 37.6 | CN(C)CCCCCOc1ccccc1CCc1ccccc1 | – | –
18000 | – | – | O=C(O)C1CCCN1CCCCOc1ccccc1CCc1ccccc1 (centres undefined) | – | –
1700 | 152.4 | 74.9 | CN(C)CCCCCCOc1ccccc1CCc1ccccc1 | – | –
> 50000 | – | – | CN(CCCCOc1ccccc1CCc1ccccc1)c1ccccc1 | – | –
6200 | – | – | O=C(O)C1CCN(CCCCOc2ccccc2CCc2ccccc2)CC1 | – | –
960 | – | – | CN(C)CCCCOc1ccccc1CCc1ccccc1O | – | –
3400 | 1976 | 416 | CN(C)CCCCOc1ccc(CCc2ccccc2)cc1 | – | –
1200 | – | – | Cc1ccccc1CCc1ccccc1OCCCCN(C)C | – | –
4500 | 156.5 | 70.6 | CNCCCCOc1ccccc1CCc1ccccc1 | – | –
670 | 96.2 | 6.33 | CN(C)CCOc1ccccc1CCc1ccccc1 | – | –
620 | – | – | c1ccc(CCc2ccccc2OCCCCN2CCCC2)cc1 | – | –
3200 | 974.6 | 67.6 | CCCCN(C)CCCCOc1ccccc1CCc1ccccc1 | – | –
890 | – | – | OC1CCN(CCCCOc2ccccc2CCc2ccccc2)CC1 | – | –
19000 | – | – | c1ccc(CCc2ccccc2OCCCCN2CCOCC2)cc1 | – | –
19000 | 3328.3 | 517 | CN(C)CCCCOc1cccc(CCc2ccccc2)c1 | – | –
700 | – | – | CCN(CC)CCCCOc1ccccc1CCc1ccccc1 | – | –
29000 | – | – | CN(CCCCOc1ccccc1CCc1ccccc1)CC(=O)O | – | –
13000 | – | – | CN(CCCCOc1ccccc1CCc1ccccc1)CCCC(=O)O | – | –
1400 | – | – | CN(CCO)CCCCOc1ccccc1CCc1ccccc1 | – | –
> 50000 | 4479 | 198 | CN(CCCCOc1ccccc1CCc1ccccc1)Cc1ccccc1 | – | –
2000 | – | – | c1ccc(CCc2ccccc2OCCCCN2CCNCC2)cc1 | – | –
> 50000 | – | – | NCCCCOc1ccccc1CCc1ccccc1 | – | –
